{"source": "patent US8048896B2", "about": "“Methods for inhibiting and breaking AGE complex formation” (Cell Viable Corporation, priority 2005, dated 2011)", "key": {"[1]": {"test_system": "AGE crosslinks in tail tendon collagen of old diabetic rats", "assay": "Fluorescence of collagen treated with AGE-breakers after papain digestion", "assay_type": "biochemical, rat", "settings": "FIG. 4; particularly at 1.0 and 10 mM concentrations", "method": "(§1) The effects of these compounds on AGE crosslinks that form in vivo in tail tendon collagen of old diabetic rats were determined. Non-diabetic rats served as controls. P values were calculated using unpaired Student's t-test. The extent of AGE crosslinking of tail tendon collagen formed in vivo was assessed by acid insolubility (FIG. 2, * P<0.05 vs. non-diabetic control; ** P<0.05 vs. diabetic control) and fluorescence measurements of collagen treated with AGE-breakers after pepsin (FIG. 3; * P<0.05 vs. diabetic control) or papain digestion (FIG. 4; * P<0.05 vs. non-diabetic control; ** P<0.05 vs. diabetic control). In each of FIGS. 2-4, panel A is LR-20, panel B is LR-23, panel C is LR-99 and panel D is LR-102."}, "[2]": {"test_system": "AGE crosslinks in tail tendon collagen of old diabetic rats", "assay": "Fluorescence of collagen treated with AGE-breakers after pepsin digestion", "assay_type": "biochemical, rat", "settings": "FIG. 3; particularly at 1.0 and 10 mM concentrations", "method": "as §1"}, "[3]": {"test_system": "AGE crosslinks in tail tendon collagen of old diabetic rats", "assay": "Acid solubility of tail tendon collagen treated with AGE-breakers", "assay_type": "biochemical, rat", "settings": "FIG. 2; particularly at 1.0 and 10 mM concentrations", "method": "as §1"}, "[4]": {"test_system": "AGE-derived protein crosslinks", "settings": "in vitro and in vivo; cited from earlier work"}, "[5]": {"target": "AGE formed on glycated bovine serum albumin (Bos taurus, UniProt P02769)", "sequence (P02769 25-607)": "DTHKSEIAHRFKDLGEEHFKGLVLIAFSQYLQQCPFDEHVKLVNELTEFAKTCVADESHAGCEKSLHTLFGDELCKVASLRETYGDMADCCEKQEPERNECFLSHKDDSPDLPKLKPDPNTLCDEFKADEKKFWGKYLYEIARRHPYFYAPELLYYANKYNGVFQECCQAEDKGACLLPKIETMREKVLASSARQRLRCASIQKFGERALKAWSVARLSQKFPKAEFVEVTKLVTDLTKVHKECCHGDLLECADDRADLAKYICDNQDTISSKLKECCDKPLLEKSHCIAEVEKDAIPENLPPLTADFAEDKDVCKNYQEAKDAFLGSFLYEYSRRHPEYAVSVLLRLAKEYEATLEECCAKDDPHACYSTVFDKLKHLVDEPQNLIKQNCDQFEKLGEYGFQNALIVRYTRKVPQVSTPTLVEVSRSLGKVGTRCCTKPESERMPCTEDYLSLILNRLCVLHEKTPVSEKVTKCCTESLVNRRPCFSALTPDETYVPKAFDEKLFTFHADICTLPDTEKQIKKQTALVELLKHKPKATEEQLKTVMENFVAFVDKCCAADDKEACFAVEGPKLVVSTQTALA", "assay": "AGE-breaking ELISA on ribose-glycated bovine serum albumin", "assay_type": "biochemical", "settings": "FIG. 1; various concentrations, 48 hr at 37° C.; ELISA with polyclonal anti-AGE-RNAse antibodies", "description": "Specifically, bovine serum albumin (10 mg/mL) was incubated with 0.5 M ribose in 0.4 M phosphate buffer, pH 7.5, containing 0.02% sodium azide for 24 hr at 37° C., followed by extensive dialysis for 24 hr at 4° C. to remove excess and reversibly bound ribose. AGE formation was then initiated by incubating 0.1 mg/mL (or 1:100 dilution in phosphate buffer) of the glycated protein at 37° C. Then the AGE formed were treated with various concentrations for the compounds for 48 hr at 37° C. Aliquots from each sample were taken and diluted with 0.1 M sodium carbonate buffer to 50 μg/mL. Then 50 μl of the diluted sample was added to wells of a 96-well polystyrene plate (1.0 μg/well) and incubated overnight at room temperature. The plates were washed thrice with PBS-0.05% Tween and blocked for 1 hr with Superblock blocking buffer. The amount of AGE in each treatment was then quantified by ELISA using polyclonal anti-AGE-RNAse antibodies. Percent AGE-breaking was calculated as: (100*(mean OD wells of control-mean OD wells with compound/mean OD wells control)."}}}
{"smiles": "CC(C)(Oc1ccc(NC(=O)c2ccc(Cl)cc2)cc1)C(=O)N[C@@H](CSSC[C@H](NC(=O)C(C)(C)Oc1ccc(NC(=O)c2ccc(Cl)cc2)cc1)C(=O)O)C(=O)O", "note": "[LR-20, L-bis-[4-(4-chlorobenzamidophenoxyisobutyryl)cystine]]", "values": [{"measurement": "fluorescence associated with AGE crosslinks after papain digestion", "setting": "[1]", "value": "reduction of fluorescence"}, {"measurement": "fluorescence associated with AGE crosslinks after pepsin digestion", "setting": "[2]", "value": "reduction of fluorescence"}, {"measurement": "collagen solubility in weak acetic acid (acid insolubility)", "setting": "[3]", "value": "increased collagen solubility"}]}
{"smiles": "CC(C)(Oc1ccc(NC(=O)Nc2cc(Cl)cc(Cl)c2)cc1)C(=O)NC1(C(=O)O)CCCCC1", "note": "[LR-23, 4-(3,5-dichlorophenylureido)phenoxyisobutyryl-1-amidocyclohexane-1-carboxylic acid]", "values": [{"measurement": "fluorescence associated with AGE crosslinks after papain digestion", "setting": "[1]", "value": "reduction of fluorescence"}, {"measurement": "fluorescence associated with AGE crosslinks after pepsin digestion", "setting": "[2]", "value": "reduction of fluorescence"}, {"measurement": "collagen solubility in weak acetic acid (acid insolubility)", "setting": "[3]", "value": "increased collagen solubility"}]}
{"smiles": "CC(C)(Oc1ccc(NC(=O)Nc2cc(Cl)cc(Cl)c2)cc1)C(=O)Nc1ccc(C(=O)O)cc1", "note": "[LR-99, 4-(3,5-dichlorophenylureidophenoxyisobutyryl)-4 amino benzoic acid]", "values": [{"measurement": "fluorescence associated with AGE crosslinks after papain digestion", "setting": "[1]", "value": "reduction of fluorescence"}, {"measurement": "fluorescence associated with AGE crosslinks after pepsin digestion", "setting": "[2]", "value": "reduction of fluorescence"}, {"measurement": "collagen solubility in weak acetic acid (acid insolubility)", "setting": "[3]", "value": "increased collagen solubility"}]}
{"smiles": "CC(C)(Oc1ccc(N=Cc2ccc(C=Nc3ccc(OC(C)(C)C(=O)O)cc3)cc2)cc1)C(=O)O", "note": "[LR-102, 1,4-benzene-bis-(4-methyleneaminophenoxyisobutyric acid)]", "values": [{"measurement": "fluorescence associated with AGE crosslinks after papain digestion", "setting": "[1]", "value": "reduction of fluorescence"}, {"measurement": "fluorescence associated with AGE crosslinks after pepsin digestion", "setting": "[2]", "value": "reduction of fluorescence"}, {"measurement": "collagen solubility in weak acetic acid (acid insolubility)", "setting": "[3]", "value": "increased collagen solubility"}]}
{"smiles": "O=C(C[n+]1ccsc1)c1ccccc1.[Br-]", "note": "[N-phenacylthiazolium bromide (PTB), N-phenacylthiazolium bromide]", "values": [{"measurement": "cleavage of AGE-derived protein crosslinks", "setting": "[4]", "value": "selectively cleaves AGE-derived protein crosslinks in vitro and in vivo"}]}
{"smiles": "Cc1ncc(CO)c(CN)c1O", "note": "[pyridoxamine]", "values": [{"measurement": "Percent AGE-breaking", "setting": "[5]", "value": "concentration dependent AGE-breaking properties"}]}
